{
  "source": "patent US20090238852A1",
  "about": "“METHODS FOR CONTROLLING INTRACELLULAR CALCIUM LEVELS ASSOCIATED WITH AN ISCHEMIC EVENT” (University of Utah Research Foundation, priority 2008, published 2009)",
  "system": "rabbit ventricular myocytes",
  "experiment": "[Na^+]i in paced myocytes exposed to ATX, no metabolic inhibition",
  "format": "cell-based",
  "details": "FIG. 9",
  "method": "In these studies, intracellular calcium concentration [Ca^++]i was measured by flow cytometry. Measurement of isolated mouse and rabbit ventricular myocyte [Ca^2+]i and [Na^+]i by flow cytometry has been described (Zhang et al., J. Cardiovasc. Pharmacol. 51: 443-449 (2008); Li et al., J. Mol. Cell. Cardiol. 33: 2145-2155 (2001)). [Ca^++]i was measured with the Ca^++ sensitive fluorescent probe, Fluo 3-AM (Molecular Probes, Eugene, Oreg.), using a FACScan (Becton-Dickinson, MA). The cells were exposed to 4 μmol/L Fluo-3 AM for 30 min at 37° C. The cells were then separated into aliquots. […] Metabolic ischemia was accomplished by incubating cells in a glucose-free MKRBB solution (pH 7.40) containing 2 mmol/L sodium cyanide (NaCN) to impair mitochondrial and glycolytic generation of ATP. To reproduce the situation in the beating ischemic heart, during the period of metabolic ischemia, myocytes were placed in a 5-well chamber with equal volumes of myocyte suspensions from the same heart dissociation placed in each well. The chamber was water bathed to maintain temperature at 37° C. and bubbled with 5% CO2 in air to keep myocytes in suspension. Each well was fitted with platinum sheet electrodes on both sides for field stimulation. One chamber was constructed with a glass coverslip bottom so that myocytes can be observed microscopically to assess capture threshold. Placing electrodes were connected in series to a constant current pulse generator that delivers a 0.2 ampere pulse at 0.5 Hz. […] Approximately 2×10^3 myocytes were analyzed to calculate average emission fluorescence intensity in each sample. […] Only those cells with low fluorescence intensity at 670 nm (PI-negative cells or viable cells) were included in the comparative analysis of [Ca^++]i. The sample [Ca^2+]i values were calculated by Mn^2+ quenching (Sugishita et al, 2001) and [Na^+]i values by comparison with a standard curve of varied [Na^+]i versus Na Green fluorescence. […] Results were expressed as means±SEM. […]",
  "data": [
    {"substance": "2-O, 3-O desulfated heparin [ODSH]", "values": [
      {"measurement": "effect on ATX-induced increase in [Na^+]i", "setting": "ODSH 100 ug/ml with ATX 10 nM", "result": "almost completely inhibited"},
      {"measurement": "effect on [Na^+]i in the absence of ATX", "setting": "ODSH 100 ug/ml, HEPES + pacing alone", "result": "reduced [Na^+]i in myocytes in the absence of ATX but to a much smaller extent"}
    ]}
  ]
}
